Laboratory results as given in paper PMC2918394 (Journal of medicinal chemistry, 2010).

Key:
SARS-CoV PLpro = SARS-CoV PLpro (Severe acute respiratory syndrome coronavirus, UniProt P0C6X7); assay type: biochemical
SARS-CoV = assay type: cell-based; conditions: SARS-CoV infected Vero E6 cells

1-[1-(2-Naphthyl)ethyl]-4-(4-methoxybenzylamino)carbonylpiperazine [Compound 20]
PLpro inhibitory activity (in words) (SARS-CoV PLpro): no activity against PLpro

COc1ccc(CNC(=O)C2CCN(Cc3cccc4ccccc34)CC2)cc1 [Compound 3]
antiviral activity (in words) (SARS-CoV): does not show any antiviral activity

COc1ccccc1CNC(=O)C1CCN(Cc2cccc3ccccc23)CC1 [Compound 7a, 1-[(1-Naphthyl)methyl]-4-[(2-methoxybenzylamino)carbonyl]piperidine]
PLpro inhibitory activity (in words) (SARS-CoV PLpro): very poor inhibitory activity

COc1ccccc1CNC(=O)C1CCN([C@H](C)c2cccc3ccccc23)CC1 [Compound 15a, 1-[(R)-1-(1-Naphthyl)ethyl]-4-(2-methoxybenzylamino)carbonylpiperidine]
reduction in potency over 15b and 15c (SARS-CoV PLpro): 3 fold

COc1ccc(CNC(=O)C2CCN([C@H](C)c3cccc4ccccc34)CC2)cc1 [Compound 15c, 1-[(R)-1-(1-Naphthyl)ethyl]-4-(4-methoxybenzylamino)carbonylpiperidine]
potency enhancement over 3 (SARS-CoV PLpro): > 170 fold

COc1cccc(CNC(=O)C2CCN([C@@H](C)c3ccc4ccccc4c3)CC2)c1 [Compound 15f, 1-[(S)-1-(2-Naphthyl)ethyl]-4-(3-methoxybenzylamino)carbonylpiperidine]
more potent than the 2(R)-derivative 15d (SARS-CoV PLpro): 2 fold | antiviral activity (in words) (SARS-CoV): no antiviral activity

CC(C)(c1cccc2ccccc12)N1CCC(C(=O)NCc2ccc3c(c2)OCO3)CC1 [Compound 15k, 1-[1-Methyl-1-(1-naphthyl)ethyl]-4-[3,4-(methylenedioxy)benzylamino]carbonylpiperidine]
PLpro inhibitory activity (in words) (SARS-CoV PLpro): inactive
